{"source": "patent US6737383B1", "about": "“Herbicidal oxadiazolidines” (priority 1999, dated 2004)", "key": {"duck salad": {"tested_on": "duck salad", "test": "Test B flood test duck salad", "format": "in vivo, Heteranthera limosa", "outline": "(§1)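 Read-out is a visual response score from 0 (no effect) to 10 (complete control), assigned by comparison with untreated controls. Treatment was applied at the 2-leaf stage, and plants stayed in the greenhouse for twelve to sixteen days before scoring.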"}, "blackgrass": {"tested_on": "blackgrass", "test": "Test B pre/postemergence blackgrass", "format": "in vivo, Alopecurus myosuroides", "outline": "(§2)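 Test chemicals in a non-phytotoxic solvent mixture with surfactant were sprayed preemergence onto planted seeds and postemergence onto plants 2 to 18 cm tall (1- to 4-leaf stage). After twelve to sixteen days in a greenhouse, injury was visually rated against untreated controls from 0 (no effect) to 10 (complete control).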"}, "wheat": {"tested_on": "wheat", "test": "Test B pre/postemergence wheat", "format": "in vivo, Triticum aestivum", "outline": "as §2"}, "soybean": {"tested_on": "soybean", "test": "Test B pre/postemergence soybean", "format": "in vivo, Glycine max", "outline": "as §2"}, "velvetleaf": {"tested_on": "velvetleaf", "test": "Test B pre/postemergence velvetleaf", "format": "in vivo, Abutilon theophrasti", "outline": "as §2"}, "purple nutsedge": {"tested_on": "purple nutsedge", "test": "Test B pre/postemergence purple nutsedge", "format": "in vivo, Cyperus rotundus", "outline": "as §2"}, "crabgrass": {"tested_on": "crabgrass", "test": "Test B pre/postemergence crabgrass", "format": "in vivo, Digitaria sanguinalis", "outline": "as §2"}, "pigweed": {"tested_on": "pigweed", "test": "Test B pre/postemergence pigweed", "format": "in vivo, Amaranthus retroflexus", "outline": "as §2"}, "smallflower flatsedge": {"tested_on": "smallflower flatsedge", "test": "Test B flood test smallflower flatsedge", "format": "in vivo, Cyperus difformis", "outline": "as §1"}, "sugar beet": {"tested_on": "sugar beet", "test": "Test B pre/postemergence sugar beet", "format": "in vivo, Beta vulgaris", "outline": "as §2"}, "bedstraw": {"tested_on": "bedstraw", "test": "Test B pre/postemergence bedstraw", "format": "in vivo, Galium aparine", "outline": "as §2"}, "wild oat": {"tested_on": "wild oat", "test": "Test B pre/postemergence wild oat", "format": "in vivo, Avena fatua", "outline": "as §2"}, "corn": {"tested_on": "corn", "test": "Test B pre/postemergence corn", "format": "in vivo, Zea mays", "outline": "as §2"}, "surinam grass": {"tested_on": "surinam grass", "test": "Test B pre/postemergence surinam grass", "format": "in vivo, Brachiaria decumbens", "outline": "as §2"}, "rape": {"tested_on": "rape", "test": "Test B pre/postemergence rape", "format": "in vivo, Brassica napus", "outline": "as §2"}, "rice": {"tested_on": "rice", "test": "Test B flood test rice", "format": "in vivo, Oryza sativa", "outline": "as §1"}, "[1]": {"details": "Rate 62 g/ha, headed Pre-emergence (flood test species), scale 0 to 10 (0 no effect, 10 complete control)"}, "[2]": {"details": "Rate 125 g/ha, Pre-emergence, flood test species, scale 0 to 10 where 0 is no effect and 10 is complete control"}, "[3]": {"details": "Rate 250 g/ha, Pre-emergence, flood-test species, scale 0 to 10, 0 is no effect, 10 is complete control"}, "[4]": {"details": "Rate 500 g/ha, Pre-emergence, flood test species, scale 0 to 10 (0 no effect, 10 complete control)"}, "[5]": {"details": "Preemergence, Rate 62 g/ha, scale of 0 to 10 where 0 is no effect and 10 is complete control"}, "[6]": {"details": "Preemergence, Rate 250 g/ha, scale of 0 to 10 where 0 is no effect and 10 is complete control"}, "[7]": {"details": "Preemergence, Rate 500 g/ha, scale of 0 to 10 where 0 is no effect and 10 is complete control"}, "[8]": {"details": "Rate 62 g/ha, Postemergence, scale of 0 to 10 where 0 is no effect and 10 is complete control"}, "[9]": {"details": "Rate 125 g/ha, Postemergence, scale 0 to 10"}, "[10]": {"details": "Rate 125 g/ha, Preemergence, scale of 0 to 10 where 0 is no effect and 10 is complete control"}, "[11]": {"details": "Rate 500 g/ha, Postemergence, scale 0 to 10, 0 no effect, 10 complete control"}}}
{"compound": "CCC(C)N(C(=O)n1oc(=O)n(-c2ccccc2C)c1=O)c1ccc(F)cc1", "note": "(stereo not shown) [Compound 239]", "values": [{"measurement": "Ducksalad plant response rating", "setting": "duck salad; [1]", "value": 0}, {"measurement": "Ducksalad plant response rating", "setting": "duck salad; [2]", "value": 0}, {"measurement": "Ducksalad plant response rating", "setting": "duck salad; [3]", "value": 0}, {"measurement": "Ducksalad plant response rating", "setting": "duck salad; [4]", "value": 0}, {"measurement": "Blackgrass plant response rating", "setting": "blackgrass; [5]", "value": 0}, {"measurement": "Blackgrass plant response rating", "setting": "blackgrass; [6]", "value": 4}, {"measurement": "Plant response rating, Blackgrass", "setting": "blackgrass; [7]", "value": 4}, {"measurement": "Blackgrass plant response rating", "setting": "blackgrass; [8]", "value": 0}, {"measurement": "Blackgrass plant response rating", "setting": "blackgrass; [9]", "value": 0}, {"measurement": "Blackgrass plant response rating", "setting": "blackgrass; [10]", "value": 3}, {"measurement": "Plant response rating (0 to 10; 0 is no effect, 10 is complete control), Blackgrass", "setting": "blackgrass; Rate 250 g/ha, Postemergence", "value": 2}, {"measurement": "Blackgrass plant response rating", "setting": "blackgrass; [11]", "value": 3}, {"measurement": "Wheat plant response rating", "setting": "wheat; [5]", "value": 0}, {"measurement": "Wheat plant response rating", "setting": "wheat; [6]", "value": 0}, {"measurement": "Plant response rating, Wheat", "setting": "wheat; [7]", "value": 2}, {"measurement": "Wheat plant response rating", "setting": "wheat; [8]", "value": 0}, {"measurement": "Wheat plant response rating", "setting": "wheat; [10]", "value": 0}, {"measurement": "Wheat plant response rating", "setting": "wheat; [11]", "value": 0}, {"measurement": "Soybean plant response rating", "setting": "soybean; [5]", "value": 0}, {"measurement": "Soybean plant response rating", "setting": "soybean; [6]", "value": 0}, {"measurement": "Plant response rating, Soybean", "setting": "soybean; [7]", "value": 0}, {"measurement": "Soybean plant response rating", "setting": "soybean; [8]", "value": 1}, {"measurement": "Soybean plant response rating", "setting": "soybean; [10]", "value": 0}, {"measurement": "Soybean plant response rating", "setting": "soybean; [11]", "value": 3}, {"measurement": "Velvetleaf plant response rating", "setting": "velvetleaf; [5]", "value": 0}, {"measurement": "Velvetleaf plant response rating", "setting": "velvetleaf; [6]", "value": 2}, {"measurement": "Plant response rating, Velvetleaf", "setting": "velvetleaf; [7]", "value": 5}, {"measurement": "Velvetleaf plant response rating", "setting": "velvetleaf; [8]", "value": 0}, {"measurement": "Velvetleaf plant response rating", "setting": "velvetleaf; [10]", "value": 0}, {"measurement": "Velvetleaf plant response rating", "setting": "velvetleaf; [11]", "value": 3}, {"measurement": "Nutsedge plant response rating", "setting": "purple nutsedge; [5]", "value": 0}, {"measurement": "Plant response rating, Nutsedge", "setting": "purple nutsedge; [7]", "value": 0}, {"measurement": "Nutsedge plant response rating", "setting": "purple nutsedge; [8]", "value": 0}, {"measurement": "Nutsedge plant response rating", "setting": "purple nutsedge; [10]", "value": 0}, {"measurement": "Plant response rating (0 to 10; 0 is no effect, 10 is complete control), Nutsedge", "setting": "purple nutsedge; Rate 250 g/ha, Postemergence", "value": 0}, {"measurement": "Nutsedge plant response rating", "setting": "purple nutsedge; [11]", "value": 0}, {"measurement": "Crabgrass plant response rating", "setting": "crabgrass; [6]", "value": 10}, {"measurement": "Plant response rating, Crabgrass", "setting": "crabgrass; [7]", "value": 10}, {"measurement": "Crabgrass plant response rating", "setting": "crabgrass; [8]", "value": 0}, {"measurement": "Crabgrass plant response rating", "setting": "crabgrass; [10]", "value": 7}, {"measurement": "Plant response rating (0 to 10; 0 is no effect, 10 is complete control), Crabgrass", "setting": "crabgrass; Rate 250 g/ha, Postemergence", "value": 2}, {"measurement": "Crabgrass plant response rating", "setting": "crabgrass; [11]", "value": 6}, {"measurement": "Redroot pigweed plant response rating", "setting": "pigweed; [5]", "value": 0}, {"measurement": "Redroot pigweed plant response rating", "setting": "pigweed; [6]", "value": 0}, {"measurement": "Plant response rating, Redroot pigweed", "setting": "pigweed; [7]", "value": 0}, {"measurement": "Redroot pigweed plant response rating", "setting": "pigweed; [8]", "value": 0}, {"measurement": "Redroot pigweed plant response rating", "setting": "pigweed; [10]", "value": 0}, {"measurement": "Plant response rating (0 to 10; 0 is no effect, 10 is complete control), Redroot pigweed", "setting": "pigweed; Rate 250 g/ha, Postemergence", "value": 3}, {"measurement": "Redroot pigweed plant response rating", "setting": "pigweed; [11]", "value": 7}, {"measurement": "S. Flatsedge plant response rating", "setting": "smallflower flatsedge; [1]", "value": 0}, {"measurement": "S. Flatsedge plant response rating", "setting": "smallflower flatsedge; [2]", "value": 0}, {"measurement": "S. Flatsedge plant response rating", "setting": "smallflower flatsedge; [3]", "value": 0}, {"measurement": "S. Flatsedge plant response rating", "setting": "smallflower flatsedge; [4]", "value": 0}, {"measurement": "Sugarbeets plant response rating", "setting": "sugar beet; [5]", "value": 0}, {"measurement": "Sugarbeets plant response rating", "setting": "sugar beet; [6]", "value": 0}, {"measurement": "Plant response rating, Sugarbeets", "setting": "sugar beet; [7]", "value": 0}, {"measurement": "Sugarbeets plant response rating", "setting": "sugar beet; [8]", "value": 0}, {"measurement": "Sugarbeets plant response rating", "setting": "sugar beet; [10]", "value": 0}, {"measurement": "Sugarbeets plant response rating", "setting": "sugar beet; [11]", "value": 0}, {"measurement": "Bedstraw plant response rating", "setting": "bedstraw; [5]", "value": 0}, {"measurement": "Bedstraw plant response rating", "setting": "bedstraw; [6]", "value": 0}, {"measurement": "Plant response rating, Bedstraw", "setting": "bedstraw; [7]", "value": 0}, {"measurement": "Bedstraw plant response rating", "setting": "bedstraw; [8]", "value": 0}, {"measurement": "Bedstraw plant response rating", "setting": "bedstraw; [9]", "value": 3}, {"measurement": "Bedstraw plant response rating", "setting": "bedstraw; [10]", "value": 0}, {"measurement": "Plant response rating (0 to 10; 0 is no effect, 10 is complete control), Bedstraw", "setting": "bedstraw; Rate 250 g/ha, Postemergence", "value": 3}, {"measurement": "Bedstraw plant response rating", "setting": "bedstraw; [11]", "value": 3}, {"measurement": "Wild oats plant response rating", "setting": "wild oat; [5]", "value": 0}, {"measurement": "Wild oats plant response rating", "setting": "wild oat; [6]", "value": 3}, {"measurement": "Plant response rating, Wild oats", "setting": "wild oat; [7]", "value": 3}, {"measurement": "Wild oats plant response rating", "setting": "wild oat; [8]", "value": 0}, {"measurement": "Wild oats plant response rating", "setting": "wild oat; [10]", "value": 0}, {"measurement": "Wild oats plant response rating", "setting": "wild oat; [11]", "value": 0}, {"measurement": "Corn plant response rating", "setting": "corn; [5]", "value": 0}, {"measurement": "Corn plant response rating", "setting": "corn; [6]", "value": 0}, {"measurement": "Plant response rating, Corn", "setting": "corn; [7]", "value": 0}, {"measurement": "Corn plant response rating", "setting": "corn; [8]", "value": 0}, {"measurement": "Corn plant response rating", "setting": "corn; [9]", "value": 0}, {"measurement": "Corn plant response rating", "setting": "corn; [10]", "value": 0}, {"measurement": "Plant response rating (0 to 10; 0 is no effect, 10 is complete control), Corn", "setting": "corn; Rate 250 g/ha, Postemergence", "value": 0}, {"measurement": "Corn plant response rating", "setting": "corn; [11]", "value": 0}, {"measurement": "B. signalgrass plant response rating", "setting": "surinam grass; [5]", "value": 0}, {"measurement": "B. signalgrass plant response rating", "setting": "surinam grass; Preemergence, Rate 250 g/ha, scale 0 to 10, 0 is no effect, 10 is complete control", "value": 4}, {"measurement": "Plant response rating, B. signalgrass", "setting": "surinam grass; [7]", "value": 5}, {"measurement": "B. signalgrass plant response rating", "setting": "surinam grass; [8]", "value": 0}, {"measurement": "B. signalgrass plant response rating", "setting": "surinam grass; Rate 125 g/ha, Postemergence, scale 0 (no effect) to 10 (complete control)", "value": 0}, {"measurement": "B. signalgrass plant response rating", "setting": "surinam grass; [10]", "value": 0}, {"measurement": "Plant response rating (0 to 10; 0 is no effect, 10 is complete control), B. signalgrass", "setting": "surinam grass; Rate 250 g/ha, Postemergence", "value": 0}, {"measurement": "B. signalgrass plant response rating", "setting": "surinam grass; [11]", "value": 0}, {"measurement": "Rape plant response rating", "setting": "rape; [5]", "value": 0}, {"measurement": "Rape plant response rating", "setting": "rape; [6]", "value": 0}, {"measurement": "Plant response rating, Rape", "setting": "rape; [7]", "value": 0}, {"measurement": "Rape plant response rating", "setting": "rape; [8]", "value": 0}, {"measurement": "Rape plant response rating", "setting": "rape; [10]", "value": 0}, {"measurement": "Plant response rating (0 to 10; 0 is no effect, 10 is complete control), Rape", "setting": "rape; Rate 250 g/ha, Postemergence", "value": 0}, {"measurement": "Rape plant response rating", "setting": "rape; [11]", "value": 0}, {"measurement": "Rice plant response rating", "setting": "rice; [1]", "value": 0}, {"measurement": "Rice plant response rating", "setting": "rice; [2]", "value": 0}, {"measurement": "Rice plant response rating", "setting": "rice; [3]", "value": 0}, {"measurement": "Rice plant response rating", "setting": "rice; [4]", "value": 0}]}
